# Source: EP4653440A1, “HETEROCYCLIC COMPOUND, AND PHARMACEUTICAL COMPOSITION AND USE THEREOF” (Prime Gene Therapeutics Co., Ltd., priority 2023, dated 2024)
# What was measured:
# [1] = test system: phosphorylation of myosin light chain T18/S19; experiment: In Cell Western for phosphorylation of myosin light chain in A7r5 cells; format: cell-based, rat
# From the text: The rat smooth muscle cell line A7r5 was used, and the A7r5 cell culture conditions were DMEM containing 10% FBS. Phspho-MLC-T18/S19 specific antibody and a second detection antibody were used to detect the phosphorylation level of myosin light chain by In Cell Western. Cells treated with positive compounds were used as positive controls, while the group without compounds but with compound solvents was used as negative controls. DRAQ5 stained cell nuclei were used as internal references. GraphPad Prism 7.0 software was used, and fitting was carried out by using a non-linear regression curve with varying slopes to determine the absolute IC50 value.
# On the first day, A7r5 cells were resuspended in serum-free medium and seeded into 384 wells of PDL coated transparent black plates at a density of 5000 cells per well. Serum starvation culture was performed for 4 hours, and the cells were incubated with the compound in serum-free medium for 1 hour. 50 µL of 8% PFA (polyformaldehyde) was added to each well and fixed at room temperature for 1 hour. The liquid in the wells was discard and 90 µL of ice methanol was added to each well to permeabilize the cells at 4 °C for 1 hour. Then, PBST (0.1% Tween20-PBS) was added using an automatic separator to wash three times. After patting the plate for drying, 50 µL blocking solution was added to each well for sealing at room temperature for 1 hour. The phspho-MLC-T18/S19 specific antibody was diluted with the blocking solution at a ratio of 1:200. After adding 20 µL to each well, incubation was carried out overnight at 4 °C with a sealed film.
# On the second day, the liquid in the wells was discarded and PBST was added using an automatic separator to wash the plate 5 times. After patting the plate for drying, the second detection antibody was diluted with blocking solution at a ratio of 1:800 and DRAQ5 at a ratio of 1:1000. After adding 20 µL to each well, incubation was carried out at room temperature for 1 hour. Then, the liquid in the wells was discarded and PBST was added using an automatic separator to wash the plate 3 times, followed by adding ddH2O to wash the plate 3 times. After patting the plate for drying, it was scaned using a LICOR Odyssey near-infrared imaging scanner.
# ROCK2 = ROCK2 (Homo sapiens, UniProt O75116); experiment: ROCK2 kinase enzymatic activity (HTRF, STK2 substrate); format: biochemical; details: ROCK2 kinase reaction 30 minutes at room temperature
# ROCK2, sequence (O75116 whole entry): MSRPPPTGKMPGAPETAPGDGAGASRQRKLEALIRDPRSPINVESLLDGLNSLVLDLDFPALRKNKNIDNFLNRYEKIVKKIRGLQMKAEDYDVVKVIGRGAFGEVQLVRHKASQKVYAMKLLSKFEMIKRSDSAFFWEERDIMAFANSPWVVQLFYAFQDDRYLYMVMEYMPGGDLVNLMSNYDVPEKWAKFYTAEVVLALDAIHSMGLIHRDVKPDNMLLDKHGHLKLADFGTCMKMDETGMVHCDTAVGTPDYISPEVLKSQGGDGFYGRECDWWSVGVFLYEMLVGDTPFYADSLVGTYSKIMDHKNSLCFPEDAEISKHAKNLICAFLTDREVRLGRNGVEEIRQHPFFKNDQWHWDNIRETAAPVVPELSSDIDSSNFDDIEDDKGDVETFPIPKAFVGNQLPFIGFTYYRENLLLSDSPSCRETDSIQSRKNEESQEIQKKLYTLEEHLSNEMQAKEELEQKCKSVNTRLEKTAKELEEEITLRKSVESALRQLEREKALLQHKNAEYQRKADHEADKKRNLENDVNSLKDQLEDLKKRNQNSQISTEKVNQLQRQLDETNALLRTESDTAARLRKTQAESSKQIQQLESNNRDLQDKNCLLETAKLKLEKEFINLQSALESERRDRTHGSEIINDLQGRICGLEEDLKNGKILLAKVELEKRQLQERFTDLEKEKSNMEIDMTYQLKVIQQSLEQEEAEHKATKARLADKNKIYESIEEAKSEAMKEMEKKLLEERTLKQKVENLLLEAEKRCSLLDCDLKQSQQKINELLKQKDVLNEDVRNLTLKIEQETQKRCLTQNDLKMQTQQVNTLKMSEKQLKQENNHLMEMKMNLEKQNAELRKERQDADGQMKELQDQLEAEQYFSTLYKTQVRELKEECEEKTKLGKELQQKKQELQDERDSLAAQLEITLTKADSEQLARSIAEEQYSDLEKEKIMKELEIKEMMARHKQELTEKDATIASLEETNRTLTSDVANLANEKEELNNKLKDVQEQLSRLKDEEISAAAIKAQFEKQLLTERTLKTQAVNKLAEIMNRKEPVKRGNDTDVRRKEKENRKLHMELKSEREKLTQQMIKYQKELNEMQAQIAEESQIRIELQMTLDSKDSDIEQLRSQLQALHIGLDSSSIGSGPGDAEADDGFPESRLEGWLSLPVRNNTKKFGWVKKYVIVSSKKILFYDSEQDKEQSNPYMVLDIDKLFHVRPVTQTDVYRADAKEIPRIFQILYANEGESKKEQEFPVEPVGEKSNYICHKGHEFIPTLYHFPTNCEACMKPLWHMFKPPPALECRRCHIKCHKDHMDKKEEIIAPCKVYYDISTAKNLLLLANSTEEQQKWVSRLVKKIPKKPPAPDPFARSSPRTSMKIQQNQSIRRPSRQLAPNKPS
# From the text: (§1) The kinase activity data was expressed by comparing the kinase activity of the test compound and that of the blank group (containing only DMSO), and the IC50 value was obtained by curve fitting using Prism software (GraphPad7.0).
# ROCK1 = ROCK1 (Homo sapiens, UniProt Q13464); experiment: ROCK1 kinase enzymatic activity (HTRF, STK2 substrate); format: biochemical; details: ROCK1 kinase reaction 20 minutes at room temperature
# ROCK1, sequence (Q13464 whole entry): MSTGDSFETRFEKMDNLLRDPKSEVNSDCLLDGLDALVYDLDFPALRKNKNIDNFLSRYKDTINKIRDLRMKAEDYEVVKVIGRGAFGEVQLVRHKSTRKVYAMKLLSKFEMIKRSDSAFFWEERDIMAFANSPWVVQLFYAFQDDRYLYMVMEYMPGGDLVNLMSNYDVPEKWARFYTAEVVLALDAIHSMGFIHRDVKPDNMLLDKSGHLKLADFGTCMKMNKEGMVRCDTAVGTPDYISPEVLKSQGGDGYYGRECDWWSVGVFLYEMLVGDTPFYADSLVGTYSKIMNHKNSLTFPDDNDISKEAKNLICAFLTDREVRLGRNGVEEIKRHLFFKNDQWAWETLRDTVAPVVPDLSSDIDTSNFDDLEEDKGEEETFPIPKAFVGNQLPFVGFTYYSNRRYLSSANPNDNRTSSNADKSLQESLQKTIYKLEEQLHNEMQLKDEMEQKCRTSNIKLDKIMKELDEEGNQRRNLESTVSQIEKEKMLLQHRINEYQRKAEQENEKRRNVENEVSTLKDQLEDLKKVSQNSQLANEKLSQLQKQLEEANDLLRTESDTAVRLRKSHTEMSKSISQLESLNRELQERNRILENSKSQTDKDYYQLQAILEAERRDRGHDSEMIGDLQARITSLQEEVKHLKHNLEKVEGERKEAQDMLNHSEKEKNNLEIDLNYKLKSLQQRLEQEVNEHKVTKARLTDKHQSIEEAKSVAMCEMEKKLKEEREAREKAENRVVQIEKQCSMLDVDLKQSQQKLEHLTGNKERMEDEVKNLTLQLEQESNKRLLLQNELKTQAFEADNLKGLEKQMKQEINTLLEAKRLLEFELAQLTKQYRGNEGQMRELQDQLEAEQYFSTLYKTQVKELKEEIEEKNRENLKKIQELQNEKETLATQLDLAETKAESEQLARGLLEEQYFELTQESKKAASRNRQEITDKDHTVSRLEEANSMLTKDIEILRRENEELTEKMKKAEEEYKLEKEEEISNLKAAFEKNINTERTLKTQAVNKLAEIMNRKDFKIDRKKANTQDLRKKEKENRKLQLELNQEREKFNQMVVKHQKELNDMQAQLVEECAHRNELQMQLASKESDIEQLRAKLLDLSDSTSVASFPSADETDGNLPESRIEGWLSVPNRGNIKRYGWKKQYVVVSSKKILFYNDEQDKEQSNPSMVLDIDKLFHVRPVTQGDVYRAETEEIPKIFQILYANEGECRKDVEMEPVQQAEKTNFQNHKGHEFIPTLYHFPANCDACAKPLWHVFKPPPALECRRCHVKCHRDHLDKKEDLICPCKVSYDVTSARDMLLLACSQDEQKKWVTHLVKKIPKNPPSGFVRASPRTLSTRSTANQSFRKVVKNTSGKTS
# From the text: as §1
"IC50 ([1]; Rattus norvegicus, A7R5, 1 h)",IC50 (ROCK2),IC50 (ROCK1),SMILES,"IC50 ([1]; rat smooth muscle cell line A7r5, 1 hour compound incubation in serum-free medium, absolute IC50)"
92 nM,< 1 nM,< 2 nM,"N#CCC1(n2cc(-c3ncnc4[nH]ccc34)c(N)n2)CCS(=O)(=O)CC1 [Example 1, 2-(4-(3-amino-4-(7H-pyrrolo[2,3-d]pyrimidin-4-yl)-1H-pyrazol-1-yl)-1,1-dioxidotetrahydro-2H-thiopyran-4-yl)acetonitrile]",
85 nM,< 1 nM,< 2 nM,"N#CCC1(n2cc(-c3ncnc4[nH]ccc34)c(N)n2)CS(=O)(=O)C1 [Example 2, 2-(3-(3-amino-4-(7H-pyrrolo[2,3-d]pyrimidin-4-yl)-1H-pyrazol-1-yl)-1,1-dioxothietan-3-yl)acetonitrile]",
78 nM,< 1 nM,< 2 nM,"N#CCC1(n2cc(-c3ncnc4[nH]ccc34)c(N)n2)CCS(=O)(=O)C1 (stereo not shown) [Example 3, 2-(3-(3-amino-4-(7H-pyrrolo[2,3-d]pyrimidin-4-yl)-1H-pyrazol-1-yl)-1,1-dioxotetrahydrothiophen-3-yl)acetonitrile]",
160 nM,< 10 nM,< 10 nM,"N#CCC1(n2cc(-c3ncnc4[nH]ccc34)c(N)n2)CCCC1 [Example 4, 2-(1-(3-amino-4-(7H-pyrrolo[2,3-d]pyrimidin-4-yl)-1H-pyrazol-1-yl)cyclopentyl)acetonitrile]",
111 nM,< 5 nM,< 5 nM,"N#CCC1(n2cc(-c3ncnc4[nH]ccc34)c(N)n2)CCCCC1 [Example 5, 2-(1-(3-amino-4-(7H-pyrrolo[2,3-d]pyrimidin-4-yl)-1H-pyrazol-1-yl)cyclohexyl)acetonitrile]",
102 nM,< 5 nM,< 5 nM,"N#CCC1(n2cc(-c3ncnc4[nH]ccc34)c(N)n2)CC(F)(F)C1 [Example 6, 2-(1-(3-amino-4-(7H-pyrrolo[2,3-d]pyrimidin-4-yl)-1H-pyrazol-1-yl)-3,3-difluorocyclobutyl)acetonitrile]",
68 nM,< 10 nM,< 10 nM,"N#CCC1(n2cc(-c3ncnc4[nH]ccc34)c(N)n2)CC(C#N)C1 (stereo not shown) [Example 9, 3-(3-amino-4-(7H-pyrrolo[2,3-d]pyrimidin-4-yl)-1H-pyrazol-1-yl)-3-(cyanomethyl)cyclobutane-1-carbonitrile]",
48 nM,< 1 nM,< 2 nM,"N#CC[C@]1(n2cc(-c3ncnc4[nH]ccc34)c(N)n2)C[C@H](C#N)C1 [Example 10, (1r,3r)-3-(3-amino-4-(7H-pyrrolo[2,3-d]pyrimidin-4-yl)-1H-pyrazol-1-yl)-3-(cyanomethyl)cyclobutane-1-carbonitrile]",
167 nM,< 5 nM,< 5 nM,"N#CCC1(n2cc(-c3ncnc4[nH]ccc34)c(N)n2)CC2(CCC2)C1 [Example 19, 2-(2-(3-amino-4-(7H-pyrrolo[2,3-d]pyrimidin-4-yl)-1H-pyrazol-1-yl)spiro[3.3]heptan-2-yl)acetonitrile]",
218 nM,< 5 nM,< 5 nM,"N#CCC(C1CC2(CCC2)C1)n1cc(-c2ncnc3[nH]ccc23)c(N)n1 (stereo not shown) [Example 20, 3-(3-amino-4-(7H-pyrrolo[2,3-d]pyrimidin-4-yl)-1H-pyrazol-1-yl)-3-(spiro[3.3]heptan-2-yl)propionitrile]",
264 nM,< 5 nM,< 5 nM,"N#CCC(C1CC2(CCCC2)C1)n1cc(-c2ncnc3[nH]ccc23)c(N)n1 (stereo not shown) [Example 22, 3-(3-amino-4-(7H-pyrrolo[2,3-d]pyrimidin-4-yl)-1H-pyrazol-1-yl)-3-(spiro[3.4]octan-2-yl)propionitrile]",

# Second part, the compound before the results:
SMILES,"IC50 ([1]; Rattus norvegicus, A7R5, 1 h)",IC50 (ROCK2),IC50 (ROCK1),"IC50 ([1]; rat smooth muscle cell line A7r5, 1 hour compound incubation in serum-free medium, absolute IC50)"
"CC(C)NC(=O)COc1cccc(-c2nc(Nc3ccc4[nH]ncc4c3)c3ccccc3n2)c1 [Belumosudil, reference compound]",3940 nM,,,
"N#CC1CCCC1n1cc(-c2ncnc3[nH]ccc23)c(N)n1 (stereo not shown) [Example 7, 2-(3-amino-4-(7H-pyrrolo[2,3-d]pyrimidin-4-yl)-1H-pyrazol-1-yl)cyclopentane-1-nitrile]",1860 nM,< 50 nM,< 50 nM,
"N#CC1CCCCC1n1cc(-c2ncnc3[nH]ccc23)c(N)n1 (stereo not shown) [Example 8, 2-(3-amino-4-(7H-pyrrolo[2,3-d]pyrimidin-4-yl)-1H-pyrazol-1-yl)cyclohexane-1-nitrile]",1940 nM,< 50 nM,< 50 nM,
"N#CC[C@]1(n2cc(-c3ncnc4[nH]ccc34)c(N)n2)C[C@@H](C#N)C1 [Example 11, (1s,3s)-3-(3-amino-4-(7H-pyrrolo[2,3-d]pyrimidin-4-yl)-1H-pyrazol-1-yl)-3-(cyanomethyl)cyclobutane-1-carbonitrile]",466 nM,< 10 nM,< 10 nM,
"N#CCC(C1CC1)n1cc(-c2ncnc3[nH]ccc23)c(N)n1 (stereo not shown) [Example 12, 3-(3-amino-4-(7H-pyrrolo[2,3-d]pyrimidin-4-yl)-1H-pyrazol-1-yl)-3-cyclopropylpropanitrile]",85 nM,< 2 nM,< 5 nM,
"N#CCC(C1CCC1)n1cc(-c2ncnc3[nH]ccc23)c(N)n1 (stereo not shown) [Example 13, 3-(3-amino-4-(7H-pyrrolo[2,3-d]pyrimidin-4-yl)-1H-pyrazol-1-yl)-3-cyclobutylpropionitrile]",122 nM,< 5 nM,< 5 nM,
"N#CCC(C1CCCCC1)n1cc(-c2ncnc3[nH]ccc23)c(N)n1 (stereo not shown) [Example 14, 3-(3-amino-4-(7H-pyrrolo[2,3-d]pyrimidin-4-yl)-1H-pyrazol-1-yl)-3-cyclohexylpropionitrile]",175 nM,< 5 nM,< 5 nM,
"CC1(C)CC(C(CC#N)n2cc(-c3ncnc4[nH]ccc34)c(N)n2)C1 (stereo not shown) [Example 15, 3-(3-amino-4-(7H-pyrrolo[2,3-d]pyrimidin-4-yl)-1H-pyrazol-1-yl)-3-(3,3-dimethylcyclobutyl)propionitrile]",215 nM,< 5 nM,< 5 nM,
"CC1CC(C(CC#N)n2cc(-c3ncnc4[nH]ccc34)c(N)n2)C1 (stereo not shown) [Example 16, 3-(3-amino-4-(7H-pyrrolo[2,3-d]pyrimidin-4-yl)-1H-pyrazol-1-yl)-3-(3-methylcyclobutyl)propanitrile]",284 nM,< 5 nM,< 5 nM,
"CC1CC([C@H](CC#N)n2cc(-c3ncnc4[nH]ccc34)c(N)n2)C1 (stereo partly drawn) [Example 17, (3S)-3-(3-amino-4-(7H-pyrrolo[2,3-d]pyrimidin-4-yl)-1H-pyrazol-1-yl)-3-(-3-methylcyclobutyl)propanitrile]",225 nM,< 5 nM,< 5 nM,
"CC1CC([C@@H](CC#N)n2cc(-c3ncnc4[nH]ccc34)c(N)n2)C1 (stereo partly drawn) [Example 18, (3R)-3-(3-amino-4-(7H-pyrrolo[2,3-d]pyrimidin-4-yl)-1H-pyrazol-1-yl)-3-(-3-methylcyclobutyl)propanitrile]",296 nM,< 5 nM,< 5 nM,
"N#CCC(C1CC2(CC2)C1)n1cc(-c2ncnc3[nH]ccc23)c(N)n1 (stereo not shown) [Example 21, 3-(3-amino-4-(7H-pyrrolo[2,3-d]pyrimidin-4-yl)-1H-pyrazol-1-yl)-3-(spiro[2.3]hexan-5-yl)propionitrile]",185 nM,< 5 nM,< 5 nM,
"N#CCC(C1CCC2(CC2)C1)n1cc(-c2ncnc3[nH]ccc23)c(N)n1 (stereo not shown) [Example 23, 3-(3-amino-4-(7H-pyrrolo[2,3-d]pyrimidin-4-yl)-1H-pyrazol-1-yl)-3-(spiro[2.4]hept-5-yl)propionitrile]",195 nM,< 5 nM,< 5 nM,
"N#CCC(C1CC2CC2C1)n1cc(-c2ncnc3[nH]ccc23)c(N)n1 (stereo not shown) [Example 24, 3-(3-amino-4-(7H-pyrrolo[2,3-d]pyrimidin-4-yl)-1H-pyrazol-1-yl)-3-(bicyclo[3.1.0]hexyl-3-yl)propionitrile]",214 nM,< 5 nM,< 5 nM,
"N#CC[C@H](C1CC1)n1cc(-c2ncnc3[nH]ccc23)c(N)n1 [Example 25, (R)-3-(3-amino-4-(7H-pyrrolo[2,3-d]pyrimidin-4-yl)-1H-pyrazol-1-yl)-3-cyclopropylpropionitrile]",75 nM,< 2 nM,< 5 nM,
"Cc1ccc(C(=O)OCc2ccc([C@@H](CN)C(=O)Nc3ccc4cnccc4c3)cc2)c(C)c1 [Netarsudil, reference compound]",,,,288 nM
"C[C@H]1CNCCCN1S(=O)(=O)c1cccc2cncc(F)c12 [Ripasudil, reference compound]",1680 nM,29.6 nM,,
